In brackets after ≈: the same amount, converted by molar mass. Entries after “also recorded” stand apart in the source; their conditions may differ. Read-outs that look alike come from different tables or passages of the source.
Legend:
Th cells = test system: Th cells; parameters: method as in Hong et al., 2008; conditions: ref Hong et al., 2008; cited from earlier work
[1] = Cytotoxicity to macrophages; format: cell-based, mice; conditions: BALB/c, mouse, peritoneal macrophages
[2] = test system: Plasmodium falciparum sensitive to chloroquine; parameters: method as in Vale et al., 2020; conditions: ref Vale et al., 2020; cited from earlier work
HepG2 = test system: HepG2; parameters: method as in Gomes et al., 2021; conditions: exposure for 24 h, compared with EEEp and FDMEp; ref Gomes et al., 2021; cited from earlier work
[3] = test system: intracellular amastigote forms of L. amazonensis; assay: Anti-amastigote assay in infected murine macrophages (Giemsa count); format: cell-based, Leishmania amazonensis; conditions: 500, 250 and 125 μg/mL, 72 h
Method: Murine macrophages (4 × 10^5 cells) were seeded on round glass coverslips into 24-well culture plates (Nunc) in RPMI 1640 medium (Sigma and Aldrich), supplemented with 20% fetal bovine serum (FBS), 2 mM L-glutamine, penicillin 50 IU/mL, and streptomycin 50 μg/mL, pH 7.4. After 24 h of incubation at 35°C in 5% CO2, promastigotes of L. amazonensis in stationary phase were added to the wells (4 × 10^6 parasites) to promote infection of macrophages, and the cultures were incubated for 4 h at 35°C in 5% CO2. Next, the free parasites were removed by extensive washing with RPMI 1640 medium, and the infected macrophages were quantified and treated with the extract, FA2, FA3, fraction FA4, and isoeleutherin (500–125 μg/mL, each) for 72 h at 35°C in 5% CO2. The negative control consisted of infected macrophages and culture medium. The positive control used AmpB (100–25 μg/mL). Then, coverslips were stained with Giemsa, and the percentage of inhibition of intramacrophage viability of Leishmania was determined by counting the number of amastigotes per 100 macrophages on each coverslip, under a light microscope (×100 magnification). The presented data were performed in triplicate, and the IC50 was determined using GraphPad Prism version 5.04 ([Silva, 2005]).

[4] = test system: peritoneal macrophages from BALB/c mice; assay: Cytotoxicity to macrophages; format: cell-based; conditions: peritoneal macrophages from BALB/c mice
[5] = compared with EEEp and FDCMEp, ref Albuquerque et al., 2023, cited from earlier work
[6] = test system: promastigotes of L. amazonensis; assay: Inhibition of growth/viability of L. amazonensis promastigotes (MTT); format: cell-based; conditions: Leishmania amazonensis
Method: Inhibition of Leishmania growth was evaluated in vitro by cultivating promastigotes of L. amazonensis in stationary phase (5×10^6 parasites) in the presence of the extract, fractions and isoeleutherin (200–3.125 μg/mL) in 96-well culture plates (Nunc, Nunclon®, Roskilde, Denmark), for 72 h at 26°C. Viability was assessed by measuring the cleavage of MTT [3-(4,5-dimethylthiazol-2-yl)-2,5-diphenyl tetrazolium bromide] (Sigma) ([Ngure et al., 2009]). Absorbances were measured using a multiwell scanning spectrophotometer (Molecular Devices, Spectra Max Plus, Canada) at 490 nm. Amphotericin B (AmpB) was used as a positive control (25–0.3906 μg/mL). The concentration of products required to inhibit 50% of the viability of L. amazonensis (IC50) was determined by applying a sigmoidal regression of the individual concentration response curves of the compounds. The data are representative of independent experiments, carried out in triplicate, which presented similar results ([Mota et al., 2011]).

[7] = test system: amastigotes of L. donovani; conditions: ref Kaiser et al., 2000; cited from earlier work
[8] = test system: amastigotes of L. amazonensis; parameters: method as in Cunha-Junior et al., 2011; conditions: ref Cunha-Junior et al., 2011; cited from earlier work
Allium cepa = test system: Allium cepa; parameters: method as in Castro et al., 2021a; conditions: Allium cepa model, 12.5 μg/mL in 72 h; ref Castro et al., 2021a; cited from earlier work

Cc1cc(=O)c2c(C)cc3cc(O)cc(O)c3c2o1 [eleutherinol, reference compound]
effect on cytokine production of Th cells (Th cells): inhibited the production of IFNc and IL-2

C[C@@H]1[C@H](O)[C@@H](C)/C=C/C=C/C=C/C=C/C=C/C=C/C=C/[C@H](O[C@@H]2O[C@H](C)[C@@H](O)[C@H](N)[C@@H]2O)C[C@@H]2O[C@](O)(C[C@@H](O)C[C@@H](O)[C@H](O)CC[C@@H](O)C[C@@H](O)CC(=O)O[C@H]1C)C[C@H](O)[C@H]2C(=O)O [Amphotericin B, reference compound]
CC50 [1]: > 100 µg/mL

COc1cccc2c1C(=O)C1=C(C[C@@H](C)O[C@@H]1C)C2=O [Isoeleutherin, isoeleutherin]
activity in Plasmodium falciparum [2]: active
cytotoxicity in HepG2 (HepG2): the least toxic sample
anti-amastigote activity (number of amastigotes in infected macrophages vs negative control) [3]: No reductions in the number of amastigotes; also recorded: inactive
CC50 [1]: > 500 µg/mL
cytotoxicity on macrophages (in words) [4]: did not show cytotoxicity; also recorded: no cytotoxicity
genotoxicity / cytotoxicity in the micronucleus test [5]: lowest cytotoxicity
genotoxicity / cytotoxicity in the micronucleus test ([5]; listed as is eleutherin): less genotoxic
IC50 ([6]; parasite form not given, sentence on selectivity index, read-out: IC50 against L. amazonensis): > 200 µg/mL
IC50 ([6]; promastigotes, 72 h at 26°C, MTT, read-out: IC50 against promastigote form of L. amazonensis): 25 µg/mL (≈ 91.8 µM)
effect on cytokine production of Th cells (Th cells): selectively stimulating IFNc production

CC1=C(C2=C(C)C(=O)c3ccc(OCc4ccccc4)c(O)c3C2=O)C(=O)c2c(ccc(OCc3ccccc3)c2O)C1=O [6,6-Dibenzyloxy-3,3-bi-plumbagin]
IC50 for amastigotes of L. donovani [7]: 14.2 µg/mL

O=C1C2=C(C(=O)c3ccccc31)[C@H]1Oc3ccccc3[C@H]1CO2 [LQB-118]
reduction in the number of amastigotes of L. amazonensis [8]: concentration-dependent reduction

COc1cccc2c1C(=O)C1=C(C[C@H](C)O[C@@H]1C)C2=O [eleutherin]
percentage of chromosomal aberrations (Allium cepa): higher percentage of chromosomal aberrations than isoeleutherin

O=C1C=C(C2=CC(=O)c3cccc(O)c3C2=O)C(=O)c2c(O)cccc21 [3,3-Bijuglone]
IC50 for amastigotes of L. donovani [7]: 15 µg/mL

— paper PMC10950963, “Anti-leishmanial activity of Eleutherine plicata Herb. and predictions of isoeleutherin and its analogues” (Frontiers in Chemistry, 2024)
